A short description of series [1]: In vivo DMPK study, single dose in female Balb/c mice. As to conditions: mouse, plasma, po, 1 mg/kg, (1 mpk).
Experiment in series [2]: as above
As to conditions: mice. The procedure:
Objective: To evaluate the plasma concentration of the compounds and pharmacokinetics after a single dose in female Balb/c mice.
Procedures: 8 healthy adult female Balb/c mice were randomized, 4 for intravenous administration and 4 for oral administration. The compounds were mixed with a proper amount of vehicle for intravenous injection (DMSO/PEG200/water (5:45:50 v/v/v)). The mixture was vortexed and treated with ultrasound to give a 1.0 mg/mL clear solution. The clear solution was filtered through a microporous membrane filter for later use. For the oral group, the vehicle was 0.5% MC/0.2% Tween 80. The compound was mixed with the vehicle, and the mixture was vortexed and ultrasonically treated to give 1.0 mg/mL uniform suspension for later use. The mice were administered intravenously at 1 mg/kg or orally at 3 mg/kg. Whole blood was collected at certain time points, and plasma was separated. The drug concentration was measured by LC-MS/MS, and pharmacokinetic parameters were calculated using
Phoenix WinNonlin software (Pharsight, USA).

The target in series [3] is PI3K delta (Homo sapiens, UniProt O00329). The experiment in a line: In vitro enzyme activity assay (ADP-Glo lipid kinase), PI3K delta.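 Note: kinase reaction run at 23 °C, then leftover ATP depleted and the ADP formed turned back into ATP, with the luciferin/luciferase signal read as kinase activity.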 As to conditions: PI3Kδ IC50, ATP 40 μM, PIP2:3PS 50 μM, 120 min. In general terms: In ADP-Glo the light output rises with the ADP produced.
Chain of PI3K delta (O00329 whole entry): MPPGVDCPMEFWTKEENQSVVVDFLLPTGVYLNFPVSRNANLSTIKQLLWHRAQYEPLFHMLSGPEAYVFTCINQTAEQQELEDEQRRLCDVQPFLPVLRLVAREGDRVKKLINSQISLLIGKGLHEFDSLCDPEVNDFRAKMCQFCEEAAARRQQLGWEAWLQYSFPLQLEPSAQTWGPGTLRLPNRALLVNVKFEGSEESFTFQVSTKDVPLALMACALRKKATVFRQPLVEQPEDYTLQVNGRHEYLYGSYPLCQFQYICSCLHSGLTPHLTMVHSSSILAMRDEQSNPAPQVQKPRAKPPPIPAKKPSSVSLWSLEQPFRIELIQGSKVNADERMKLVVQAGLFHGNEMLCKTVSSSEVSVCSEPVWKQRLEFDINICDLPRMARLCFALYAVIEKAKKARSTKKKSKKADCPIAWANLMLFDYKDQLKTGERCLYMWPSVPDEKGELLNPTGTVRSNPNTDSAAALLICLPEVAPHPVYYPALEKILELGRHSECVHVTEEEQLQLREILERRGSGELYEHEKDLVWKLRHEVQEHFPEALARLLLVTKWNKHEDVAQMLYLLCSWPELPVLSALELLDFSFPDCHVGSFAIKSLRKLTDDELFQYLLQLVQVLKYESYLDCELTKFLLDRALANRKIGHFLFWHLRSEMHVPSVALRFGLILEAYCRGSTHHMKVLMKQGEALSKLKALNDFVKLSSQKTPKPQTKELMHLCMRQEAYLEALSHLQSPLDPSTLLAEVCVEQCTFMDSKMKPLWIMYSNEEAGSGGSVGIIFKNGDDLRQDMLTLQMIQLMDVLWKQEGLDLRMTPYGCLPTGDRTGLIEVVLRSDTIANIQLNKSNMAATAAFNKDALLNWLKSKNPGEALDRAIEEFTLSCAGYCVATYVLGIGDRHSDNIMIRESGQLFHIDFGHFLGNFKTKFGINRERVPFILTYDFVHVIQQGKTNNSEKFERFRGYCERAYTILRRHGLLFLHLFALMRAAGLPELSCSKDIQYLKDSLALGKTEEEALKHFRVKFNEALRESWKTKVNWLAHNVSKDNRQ
Chain of PI3K delta (P27986 whole entry partner): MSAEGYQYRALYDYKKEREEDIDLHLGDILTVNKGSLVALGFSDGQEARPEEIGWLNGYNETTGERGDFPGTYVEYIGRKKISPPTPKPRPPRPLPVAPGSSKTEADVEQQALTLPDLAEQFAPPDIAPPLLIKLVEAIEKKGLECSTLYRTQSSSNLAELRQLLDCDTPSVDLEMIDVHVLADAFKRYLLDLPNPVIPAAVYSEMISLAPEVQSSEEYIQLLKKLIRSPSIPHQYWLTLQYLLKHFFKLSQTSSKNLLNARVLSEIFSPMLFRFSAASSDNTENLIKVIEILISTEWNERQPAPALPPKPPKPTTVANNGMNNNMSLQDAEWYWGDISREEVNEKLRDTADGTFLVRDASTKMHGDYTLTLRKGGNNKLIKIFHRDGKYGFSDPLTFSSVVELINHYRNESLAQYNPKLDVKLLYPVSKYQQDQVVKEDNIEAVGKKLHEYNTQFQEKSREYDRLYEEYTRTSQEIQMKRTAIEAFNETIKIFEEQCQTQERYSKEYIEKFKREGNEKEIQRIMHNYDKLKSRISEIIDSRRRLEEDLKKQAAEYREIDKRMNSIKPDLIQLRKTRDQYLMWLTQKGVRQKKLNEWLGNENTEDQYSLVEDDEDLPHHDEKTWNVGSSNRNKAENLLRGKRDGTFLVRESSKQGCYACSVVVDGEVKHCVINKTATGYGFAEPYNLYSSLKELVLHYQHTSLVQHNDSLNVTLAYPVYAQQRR
Procedure: (§1) An appropriate substrate and ATP were incubated at a suitable condition for lipid kinase reaction, followed by a two-step detection of kinase activity using an ADP-Glo™ kit. Step I: The kinase reaction was terminated and residual ATP was completely removed, leaving ADP only; Step II: A kinase assay reagent was added to convert ADP to ATP by a luciferin/luciferase reaction. Finally, a fluorescence output value was detected and converted into kinase activity.
(§2) • 2) Kit: ADP-Glo™ lipid kinase and PIP2:3PS kit (Promega #V1792)
The kit comprises: 1 mM PIP2:3PS, 10× lipid dilution buffer, 1 M magnesium chloride, 10 mM ATP, 10 mM ADP, ADP-Glo reagent, detection buffer and substrate. • 3) Plate: OptiPlate-384, white and transparent (PerkinElmer #6007299) Reagent preparation: • 1) 10x reaction buffer: 500 mM HEPES (4-(2-hydroxyethyl)-1-piperazineethanesulfonic acid), pH 7.5, 500 mM NaCl, 9 mM MgCl2; BSA: 10% stock solution, prepared in-house • 2) Condition for final test system: 1× reaction system: 50 mM HEPES, 50 mM NaCl, 3 mM MgCl2, 0.01% BSA (prepared on the day of experiment), 1% DMSO (v/v) +/−compound • 3) Reaction system: 3 μL of enzyme and substrate mixture (1:1) +2 μL of ATP/MgCl2 mixture +5 μL of ADP-Glo reagent +10 μL detection reagent.
The specific experimental procedures are as follows: • 1) Dilution: 50 nL of 100× compound/DMSO solution were transferred into a test plate using Echo • For PI3Kα, the compound was serially diluted by three fold from the highest concentration 0.111 mM to the 10th concentration. • For PI3Kβ/PI3Kδ/PI3Kγ, the compound was serially diluted by three fold from the highest concentration of 1.11 mM to the 10th concentration. • 2) Kinase reaction: • (1) The target compounds were prepared. 50 nL of 100× compound solution or DMSO was added to the corresponding plate • (2) A 3.33 × reaction buffer was prepared • (3) A 3.33× PIP2:3PS solution were prepared; the PIP2:3PS solution should be thawed by vortex for at least 1 min before use • (4) An ATP solution containing 5.25 mM MgCl2 was prepared • (5) 3.33× PI3Kα/PI3Kβ/PI3Kδ/PI3Kγ solutions were prepared • (6) The lipid kinase solution and PIP2:3PS solution were mixed at a volume ratio of 1:1 • (7) The 3.33 × lipid kinase buffer and PIP2:3PS solution were mixed at a volume ratio of 1:1 • (8) 3 μL of the mixed solution of reaction buffer and PIP2:3PS was added to Columns 1 and 2 of the plate • (9) 3 μL of the mixed solution of the enzyme and PIP2:3PS was added to the wells of the plate other than Columns 1 and 2, and was centrifuged for 10 s (1000 rpm). The mixture was incubated at 23° C. for 20 min • (10) 2 μL of ATP solution was added, and the mixture was centrifuged at 1000 rpm and was shaken to mix well • (11) The plate was covered, shaken for about 30 s, and incubated for 2 h at 23° C. • (12) 5 μL of ADP-Glo reagent containing 10 mM MgCl2 was added • (13) The mixture was centrifuged at 1000 rpm for 10 s, covered and shaken for about 30 s, and incubated at 23° C. for 60 min • (14) 10 μL of kinase assay reagent was added • (15) The mixture was centrifuged at 1000 rpm for 10 s, and incubated at 23° C. for 60 min • (16) Fluorescence values were measured by an Envision system. • 2.
Series [4] deals with PI3K gamma (Homo sapiens, UniProt P48736). The experiment in a line: In vitro enzyme activity assay (ADP-Glo lipid kinase), PI3K gamma. As to conditions: PI3Kγ IC50, ATP 25 μM, PIP2:3PS 50 μM, 120 min.
Chain of PI3K gamma (P48736 whole entry): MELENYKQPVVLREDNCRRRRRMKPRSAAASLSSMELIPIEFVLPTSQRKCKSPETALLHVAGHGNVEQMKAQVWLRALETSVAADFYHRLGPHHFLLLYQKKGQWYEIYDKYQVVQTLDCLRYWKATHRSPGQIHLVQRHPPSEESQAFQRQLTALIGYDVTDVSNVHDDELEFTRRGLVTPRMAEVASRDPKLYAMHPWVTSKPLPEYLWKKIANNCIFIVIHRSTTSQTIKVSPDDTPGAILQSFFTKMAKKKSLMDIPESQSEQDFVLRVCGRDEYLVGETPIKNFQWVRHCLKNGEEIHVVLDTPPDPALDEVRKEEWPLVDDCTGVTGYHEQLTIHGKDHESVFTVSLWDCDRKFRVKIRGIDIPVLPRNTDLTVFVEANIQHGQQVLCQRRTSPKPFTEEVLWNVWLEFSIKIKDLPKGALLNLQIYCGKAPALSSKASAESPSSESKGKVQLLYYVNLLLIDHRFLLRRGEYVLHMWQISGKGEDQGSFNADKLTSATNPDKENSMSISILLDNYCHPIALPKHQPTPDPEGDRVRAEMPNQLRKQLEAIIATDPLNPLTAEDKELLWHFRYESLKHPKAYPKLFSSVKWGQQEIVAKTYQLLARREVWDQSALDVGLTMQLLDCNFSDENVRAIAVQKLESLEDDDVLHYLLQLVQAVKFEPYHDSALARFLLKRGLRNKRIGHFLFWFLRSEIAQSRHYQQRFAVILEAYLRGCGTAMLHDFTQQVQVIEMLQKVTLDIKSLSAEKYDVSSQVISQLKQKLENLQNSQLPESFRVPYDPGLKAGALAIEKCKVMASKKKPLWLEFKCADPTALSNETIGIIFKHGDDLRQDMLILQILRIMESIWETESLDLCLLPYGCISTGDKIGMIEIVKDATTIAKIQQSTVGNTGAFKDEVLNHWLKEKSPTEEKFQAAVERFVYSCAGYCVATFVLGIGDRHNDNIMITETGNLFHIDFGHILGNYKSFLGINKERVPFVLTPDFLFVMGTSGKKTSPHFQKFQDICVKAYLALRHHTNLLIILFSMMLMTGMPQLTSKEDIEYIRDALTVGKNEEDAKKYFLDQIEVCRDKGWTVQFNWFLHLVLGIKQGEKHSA
Procedure: as §1, §2
The mixture was incubated at 23° C. for 20 min • (10) 2 μL of ATP solution was added, and the mixture was centrifuged at 1000 rpm and was shaken to mix well • (11) The plate was covered, shaken for about 30 s, and incubated for 2 h at 23° C. • (12) 5 μL of ADP-Glo reagent containing 10 mM MgCl2 was added • (13) The mixture was centrifuged at 1000 rpm for 10 s, covered and shaken for about 30 s, and incubated at 23° C. for 60 min • (14) 10 μL of kinase assay reagent was added • (15) The mixture was centrifuged at 1000 rpm for 10 s, and incubated at 23° C. for 60 min • (16) Fluorescence values were measured by an Envision system. • 2. […] The mixture was incubated at 37° C./CO2 for 10 min. • 5) The compound was removed by pipette. Lysis buffer was added at 50 μL/well, and the cells wereincubated on a shaker for 30 min. • 6) After the cells were completely lysed, 16 μL of lysate was transferred to a 384-well plate and 4 μL of prepared AC+D2 in the kit was added. (AC: Eu3+-cryptate antibody binds to phosphorylated AKT, while D2 binds to non-phosphorylated AKT) The mixture was incubated at room temperature for 4 h.
In series [5] the test system is TMD-8 cell. The experiment in a line: TMD-8 cell viability test (CellTiter-Glo, 72 h). The format is cell-based. Conditions: Homo sapiens, TMD8. The protocol: 7) After incubation, readings at 620 and 665 nm on EnVingen were recorded. • <2> TMD-8 cell viability test • 1) Cell Culture
Cells were regularly passaged. Cells at logarithmic growth phase were transferred to the plate. • 2) Plating • (1). Cells were stained with trypan blue and viable cells were counted. • (2). Cell concentration was adjusted to 7000 cells/well • (3). 90 μL of cell suspension was added to each well of the plate and cell-free medium was added to blank control wells. • (4). The plate was incubated overnight at 37° C., 5% CO2 and 100% relative humidity in an incubator. • 3) Preparation of Plate Containing Compound Stock
(1). Preparation of plate containing 400× compound stock: Compounds were diluted from the highest concentration gradient to lowest concentration with DMSO. • 4) Preparation of 10× compound working solution and treatment • (1). Preparation of 10× compound working solution: 78 μL of cell culture medium was added to a V-bottom 96-well plate, and 2 μL of compound stock solution was pipetted from the plate containing 400× compound stock into the cell cultures of 96-well plate. 2 μL of DMSO was added to the vehicle control wells and blank control wells. After compounds or DMSO was added, the mixture was well mixed by a pipette. • (2). 10 μL of DMSO-cell culture medium mixture solution was added to the vehicle control wells and blank control wells. The final concentration of DMSO was 0.25%. • (3). The 96-well cell plate was incubated in the incubator for another 72 h. • 5) CellTiter-Glo Luminescent Cell Viability Assay
The following procedure was performed according to the instructions of Promega CellTiter-Glo luminescent cell viability assay kit (Promega-G7573). • (1). CellTiter-Glo buffer was thawed and let stand at room temperature. • (2). The CellTiter-Glo substrate was let stand at room temperature. • (3). The CellTiter-Glo buffer was added to a flask of CellTiter-Glo substrate to dissolve the substrate, thereby preparing a CellTiter-Glo working solution. • (4). The solution was vortexed to completely dissolve the substrate. • (5). The plate was incubated at room temperature for 30 min for equilibration. • (6). 50 μL (equal to half the volume of cell culture medium in each well) of CellTiter-Glo working solution was added to each well. The plate was covered by aluminum foil to avoid light. • (7). The plate was shaken on an orbital shaker for 2 min to induce cell lysis. • (8). The plate was let stand at room temperature for 10 min to stabilize the luminescence signals. • (9). The luminescence signals were detected on 2104 EnVision plate reader.
Background: In ATP-based viability assays light output follows the ATP content of the culture.

A word on the Cmax: it is the peak of the concentration-time curve. As a reminder, the clearance is the rate of elimination divided by the concentration. The term bioavailability denotes the share of a dose that reaches the circulation, judged against a reference dose that is usually intravenous. Usually IC50 stands for the point on the concentration scale where inhibition reaches its midpoint. Lower therefore signals inhibition by little substance.

The structures appear in SMILES notation.

For `CC(C)n1cc(-c2nn(C(C)c3nc4ccc(F)cn4c(=O)c3-c3cccc(F)c3)c3ncnc(N)c23)cn1` (stereo not drawn) [WX038], the Cmax in series [1] was found to be 1400 nM. In addition, in series [2] (female, Balb/c, mouse, plasma, 1 mg/kg, note lists it as an intravenous parameter, read-out: T1/2 (half-life) (converted)), the half-life is 1.76 h. Further, in series [2] (female, Balb/c, mouse, plasma, intravenous 1 mg/kg, read-out: Cl (clearance)), the clearance came to 14.2 mL/min/kg. Moreover, in series [2] (female, Balb/c, mouse, plasma, intravenous 1 mg/kg, read-out: Vd (apparent volume of distribution)), the Vd amounted to 1.28 L/kg. In addition, the bioavailability in series [2] (female, Balb/c, mouse, plasma, oral 3 mg/kg vs intravenous 1 mg/kg, read-out: F % (oral bioavailability)) was 83.8%. In addition, the “Oral DNAUC (dose-normalized area under curve)” value in series [2] (oral) came to 1825 nM · h/mpk. Besides, the 50% inhibitory concentration (IC50) came out at 39.9 nM in series [3], 2440 nM in series [4] and 2320 nM in series [5].

The values are drawn from patent US20220112217A1, “PYRAZOLOPYRIMIDINE DERIVATIVE AND USE THEREOF AS PI3K INHIBITOR” (MEDSHINE DISCOVERY INC., priority 2018, published 2022).
